System: human PCSK9 locus
Test: Secreted PCSK9 by ELISA (normalized to total cell count) in Huh7 cells transfected with mRNA and gRNA
Format: cell-based
Conditions: for Secreted PCSK9 / Percent reduction in PCSK9 secretion / Average percent reduction in PCSK9 secretion: Huh7 cells, 6 days post-transfection; for Secreted PCSK9: normalized to total cell count; for Percent reduction in PCSK9 secretion: relative to non-targeting gRNA control; for Average percent reduction in PCSK9 secretion: averaged from the two doses
Method: To assess PCSK9 secretion, seeded Huh7 cells were transfected with mRNA encoding a catalytically-active CasX 676, dXR1, or LTRP5-ADD-ZIM3 and a gRNA with scaffold 316 and spacer targeting either the B2M or PCSK9 locus. Media supernatant was harvested at 6, 18, 36, and 87 days post-transfection to assess level of PCSK9 secretion by ELISA. Levels of PCSK9 secretion were normalized to total cell count. As an additional control, PCSK9 secretion was also measured in the media supernatant harvested from wells containing untreated, naïve cells.
The following three human hepatocyte cancer cell lines were used in this experiment: HepG2 cells, Hep3B cells, and Huh7 cells. ˜15,000 cells of each cell line were seeded per well; the next day, seeded cells were transfected with mRNA encoding a catalytically-active CasX 676, dXR1, or LTRP5-ADD-ZIM3 and a gRNA with scaffold 316 and spacer targeting either the B2M or PCSK9 locus (see Table 23 for specific spacers and sequences). Media supernatant was harvested at 4 days post-transfection to assess level of PCSK9 secretion by ELISA, and levels of PCSK9 secretion were normalized to total cell count and illustrated in FIGS. 11A-11C. Culturing of treated Huh7 cells continued, and media supernatant was harvested at 14 and 27 days post-transfection for measuring PCSK9 secretion by ELISA. As an additional experimental control, PCSK9 secretion was also measured in the media supernatant harvested from wells containing untreated, naïve cells.
To assess PCSK9 secretion, seeded Huh7 cells were co-transfected with mRNA encoding for LTRP5-ADD-ZIM3 and a gRNA with scaffold 316 and spacer targeting the PCSK9 locus using Lipofectamine™ 3000. Two doses of total RNA input at a 2:1 mass ratio of mRNA to gRNA were used for screening: 50 ng mRNA: 25 ng gRNA and 25 ng mRNA: 12.5 ng gRNA. Media supernatant was harvested at 6 days post-transfection to assess level of PCSK9 secretion by ELISA (Table 74). Levels of PCSK9 secretion were normalized to total cell count. As an additional control, PCSK9 secretion was also measured in the media supernatant harvested from cells transfected with mRNA encoding for mScarlet.

[1] = 25 ng mRNA:12.5 ng gRNA, paired with LTRP5-ADD-ZIM3 mRNA
[2] = 50 ng mRNA:25 ng gRNA, paired with LTRP5-ADD-ZIM3 mRNA
[3] = paired with LTRP5-ADD-ZIM3 mRNA

Row | Substance | Secreted PCSK9 [1] [ng/mL] | Percent reduction in PCSK9 secretion [1] [%] | Secreted PCSK9 [2] [ng/mL] | Percent reduction in PCSK9 secretion [2] [%] | Average percent reduction in PCSK9 secretion [3] [%] | average reduction in secreted PCSK9 levels (Huh7, LTRP5-ADD-ZIM3 mRNA + gRNA scaffold 316 (v1), 6 days, averaged from two doses (50 ng mRNA:25 ng gRNA, 25 ng:12.5 ng), relative to non-targeting gRNA) [%] | secreted PCSK9: sustained repression through day 36 (Huh7, paired with LTRP5-ADD-ZIM3 mRNA, scaffold 316, compared to spacer 6.1 paired with CasX 676)
1 | GCCUCGCCCUCCCCAAACAG (listed as RNA, chemistry not given here) [spacer 6.152, Promoter] | 57.43 | 19.39 | 36.95 | 55.09 | 37.24 |  | 
2 | TG-06-350 (guide GUGUCAUAAAGAAAUUGCCU; listed as RNA, chemistry not given here) | 67.87 | 4.74 | 71.25 | 13.4 | 9.07 |  | 
3 | GCCAGGCCGUCCUCCUCGGA (listed as RNA, chemistry not given here) [spacer 6.4, Exon 1] | 73.05 | 2.54 | 54.83 | 33.35 | 15.41 |  | 
4 | TG-06-349 (guide CUGUGCCUGGUGCAGUUCCC; listed as RNA, chemistry not given here) | 87.55 | 22.89 | 91.34 | 11.02 | 16.95 |  | 
5 | CCUUUUCAUCCUCCUGCCUG (listed as RNA, chemistry not given here) [spacer 6.126, Promoter] | 44.82 | 37.09 | 23.48 | 71.46 | 54.27 |  | 
6 | GUGCUCGGGUGCUUCGGCCA (listed as RNA, chemistry not given here) [spacer 6.5, Exon 1] | 76.37 | 7.19 | 67.08 | 18.47 | 5.64 |  | 
7 | TG-06-1046 (guide UCUCUUACAUGGGGGGAAAC; listed as RNA, chemistry not given here) | 76.27 | 7.05 | 78.9 | 4.1 | 1.48 |  | 
8 | CUCGGAAUCUGCUGUGCAUC (listed as RNA, chemistry not given here) [spacer 6.120, Promoter] | 47.97 | 32.67 | 21.43 | 73.95 | 53.31 |  | 
9 | GCCGGGCCCACCUUUUCAGU (listed as RNA, chemistry not given here) [spacer 6.148, Promoter] | 44.77 | 37.16 | 71.46 | 13.15 | 25.15 |  | 
10 | UGAACAUGGUGUGUAAAAGG (listed as RNA, chemistry not given here) [spacer 6.131, Promoter] | 57.89 | 18.74 | 28.4 | 65.48 | 42.11 |  | 
11 | ACUGGCCUUAACCUGGCAGC (listed as RNA, chemistry not given here) [spacer 6.141, Promoter] | 12.58 | 82.34 | 13.86 | 83.16 | 82.75 | 82.75 | 
12 | TG-06-346 (guide CCCACCUGUGCCGCGGCGAG; listed as RNA, chemistry not given here) | 81.63 | 14.58 | 77.02 | 6.39 | 4.09 |  | 
13 | TG-06-352: PCSK9-targeting TTC spacer positioned beyond the 1100 bp TSS-proximal window (Table 17) (guide UCCCUCACCAAUUACCCCUC; listed as RNA, chemistry not given here) |  |  |  |  |  |  | effective repression through day 36
14 | TG-06-343 (guide CCCCAUGUAAGAGAGGAAGU; listed as RNA, chemistry not given here) | 75.55 | 6.04 | 62.8 | 23.67 | 8.82 |  | 
15 | GAAUCAAUCCUACUGUGGAC (listed as RNA, chemistry not given here) [spacer 6.143, Promoter] | 22.33 | 68.66 | 38.69 | 52.97 | 60.81 |  | 
16 | TG-06-342 (guide AAUUACAGGCAACAGGAAGG; listed as RNA, chemistry not given here) | 75.23 | 5.6 | 51.55 | 37.34 | 15.87 |  | 
17 | CAGUAUCGACAGCCCUUCCA (listed as RNA, chemistry not given here) [spacer 6.124, Promoter] | 30.59 | 57.06 | 16.54 | 79.9 | 68.48 |  | 
18 | GGAGCAGGGCGCGUGAAGGG (listed as RNA, chemistry not given here) [spacer 6.158, Exon 1] | 31.72 | 55.48 | 9.39 | 88.59 | 72.03 |  | 
19 | CUCUGCGCGUAAUCUGACGC (listed as RNA, chemistry not given here) [spacer 6.151, Promoter] | 66.42 | 6.77 | 53.44 | 35.05 | 20.91 |  | 
20 | UGGGUCCACCUUGUCUCCUG (listed as RNA, chemistry not given here) [spacer 6.145, Promoter] | 18.54 | 73.98 | 15.8 | 80.8 | 77.39 |  | 
21 | GCUGAAACAGAUGGAAUACU (listed as RNA, chemistry not given here) [spacer 6.172, Intron 1] | 59.31 | 16.75 | 44.44 | 45.99 | 31.37 |  | 
22 | TG-06-002 (guide ACCGCUGCGCCAAGGUGCGG; listed as RNA, chemistry not given here) | 83.15 | 16.71 | 81.95 | 0.4 | 8.16 |  | 
23 | ACUUUGUUUGCAAAGACCUC (listed as RNA, chemistry not given here) [spacer 6.117, Promoter] | 98.05 | 37.62 | 68.98 | 16.16 | 10.73 |  | 
24 | TG-06-347 (guide CUCCUUCACCCACCUGUGCC; listed as RNA, chemistry not given here) | 51.83 | 27.24 | 26.55 | 67.73 | 47.49 |  | 

Reference: patent US12551573B2, “Compositions and methods for the targeting of PCSK9” (Scribe Therapeutics Inc., priority 2022, dated 2026)
